Data published in ChEMBL document CHEMBL1152332, “Calothrixins, a new class of human DNA topoisomerase I poisons” (J Nat Prod, 2009).
Active and inactive are the calls of the source. The calls are words filed in the database; no cut-off is given here.

How the values were obtained:
[1] = biological target: T1, DNA topoisomerase 1 (Homo sapiens) (UniProt P11387); assay: Induction of human DNA topoisomerase 1-mediated DNA cleavage at 1 to 10 uM by polyacrylamide gel electrophoresis
T1 sequence (whole entry): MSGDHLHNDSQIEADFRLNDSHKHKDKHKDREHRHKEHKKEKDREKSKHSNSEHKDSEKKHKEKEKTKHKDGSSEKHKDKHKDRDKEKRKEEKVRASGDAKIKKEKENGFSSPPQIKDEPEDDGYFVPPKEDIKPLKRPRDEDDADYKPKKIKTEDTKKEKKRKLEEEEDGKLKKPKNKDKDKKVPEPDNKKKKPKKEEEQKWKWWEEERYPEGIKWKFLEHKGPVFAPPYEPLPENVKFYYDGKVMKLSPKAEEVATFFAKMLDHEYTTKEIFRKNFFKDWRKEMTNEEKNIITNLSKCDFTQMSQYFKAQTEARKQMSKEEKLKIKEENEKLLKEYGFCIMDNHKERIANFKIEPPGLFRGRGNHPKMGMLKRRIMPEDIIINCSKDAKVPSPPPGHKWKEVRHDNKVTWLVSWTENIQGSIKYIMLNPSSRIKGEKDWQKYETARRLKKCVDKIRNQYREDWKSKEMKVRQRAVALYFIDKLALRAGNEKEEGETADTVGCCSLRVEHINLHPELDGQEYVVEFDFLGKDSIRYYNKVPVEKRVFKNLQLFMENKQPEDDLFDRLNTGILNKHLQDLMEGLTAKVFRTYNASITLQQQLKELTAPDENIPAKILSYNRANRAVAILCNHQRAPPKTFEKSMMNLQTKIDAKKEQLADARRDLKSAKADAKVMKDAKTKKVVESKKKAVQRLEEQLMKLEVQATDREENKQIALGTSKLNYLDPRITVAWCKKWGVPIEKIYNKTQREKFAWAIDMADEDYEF

[2] = biological target: T1, DNA topoisomerase 1 (Homo sapiens); assay: Reversal of drug-stabilized human DNA topoisomerase 1-DNA binary complex at 5 uM within 5 mins by polyacrylamide gel electrophoresis in presence of 0.35 M NaCl
CCRF-CEM [3] = assay: Cell cycle arrest in human CCRF-CEM cells assessed as accumulation at G0 phase at 0.1 uM treated for 3 hrs followed by drug washout and 15 hrs incubation in drug free medium by flow cytometry; type: functional
CCRF-CEM [4] = assay: Cell cycle arrest in human CCRF-CEM cells assessed as accumulation at S phase at 1 uM treated for 3 hrs measured for 15 hrs after nocodazole treatment by flow cytometry in presence of mitotic inhibitor nocodazole; type: functional
CCRF-CEM [5] = assay: Cell cycle arrest in human CCRF-CEM cells assessed as accumulation at subG1 phase at 1 uM treated for 3 hrs measured for 15 hrs after nocodazole treatment by flow cytometry in presence of mitotic inhibitor nocodazole; type: functional
CCRF-CEM [6] = assay: Cell cycle arrest in human CCRF-CEM cells assessed as accumulation at subG1 phase at 1 uM treated for 3 hrs followed by drug washout and 15 hrs incubation in drug free medium by flow cytometry; type: functional
CCRF-CEM [7] = assay: Cell cycle arrest in human CCRF-CEM cells assessed as accumulation at G0 phase at 10 uM treated for 3 hrs followed by drug washout and 15 hrs incubation in drug free medium by flow cytometry; type: functional
CCRF-CEM [8] = assay: Cell cycle arrest in human CCRF-CEM cells assessed as accumulation at subG1 phase at 10 uM treated for 3 hrs measured for 15 hrs after nocodazole treatment by flow cytometry in presence of mitotic inhibitor nocodazole; type: functional
CCRF-CEM [9] = assay: Cell cycle arrest in human CCRF-CEM cells assessed as accumulation at G0 phase at 10 uM treated for 3 hrs measured for 15 hrs after nocodazole treatment by flow cytometry in presence of mitotic inhibitor nocodazole; type: functional
CCRF-CEM [10] = assay: Cell cycle arrest in human CCRF-CEM cells assessed as accumulation at G2/M phase at 1 uM treated for 3 hrs measured for 15 hrs after nocodazole treatment by flow cytometry in presence of mitotic inhibitor nocodazole; type: functional
CCRF-CEM [11] = assay: Cell cycle arrest in human CCRF-CEM cells assessed as accumulation at S phase at 0.1 uM treated for 3 hrs followed by drug washout and 15 hrs incubation in drug free medium by flow cytometry; type: functional
CCRF-CEM [12] = assay: Cell cycle arrest in human CCRF-CEM cells assessed as accumulation at G2/M phase at 10 uM treated for 3 hrs measured for 15 hrs after nocodazole treatment by flow cytometry in presence of mitotic inhibitor nocodazole; type: functional
CCRF-CEM [13] = assay: Cell cycle arrest in human CCRF-CEM cells assessed as accumulation at S phase at 10 uM treated for 3 hrs followed by drug washout and 15 hrs incubation in drug free medium by flow cytometry; type: functional
CCRF-CEM [14] = assay: Cell cycle arrest in human CCRF-CEM cells assessed as accumulation at S phase at 1 uM treated for 3 hrs followed by drug washout and 15 hrs incubation in drug free medium by flow cytometry; type: functional
CCRF-CEM [15] = assay: Cell cycle arrest in human CCRF-CEM cells assessed as accumulation at G2/M phase at 10 uM treated for 3 hrs followed by drug washout and 15 hrs incubation in drug free medium by flow cytometry; type: functional
CCRF-CEM [16] = assay: Cell cycle arrest in human CCRF-CEM cells assessed as accumulation at G0 phase at 0.1 uM treated for 3 hrs measured for 15 hrs after nocodazole treatment by flow cytometry in presence of mitotic inhibitor nocodazole; type: functional
CCRF-CEM [17] = assay: Cell cycle arrest in human CCRF-CEM cells assessed as accumulation at G0 phase at 1 uM treated for 3 hrs measured for 15 hrs after nocodazole treatment by flow cytometry in presence of mitotic inhibitor nocodazole; type: functional
CCRF-CEM [18] = assay: Cell cycle arrest in human CCRF-CEM cells assessed as accumulation at G2/M phase at 0.1 uM treated for 3 hrs measured for 15 hrs after nocodazole treatment by flow cytometry in presence of mitotic inhibitor nocodazole; type: functional
CCRF-CEM [19] = assay: Cell cycle arrest in human CCRF-CEM cells assessed as accumulation at S phase at 10 uM treated for 3 hrs measured for 15 hrs after nocodazole treatment by flow cytometry in presence of mitotic inhibitor nocodazole; type: functional
CCRF-CEM [20] = assay: Cytotoxicity against p38-proficient human CCRF-CEM cells after 3 days by MTT assay; type: functional, cell-based; details: 72 h
CCRF-CEM [21] = assay: Cell cycle arrest in human CCRF-CEM cells assessed as accumulation at subG1 phase at 10 uM treated for 3 hrs followed by drug washout and 15 hrs incubation in drug free medium by flow cytometry; type: functional
CCRF-CEM [22] = assay: Cell cycle arrest in human CCRF-CEM cells assessed as accumulation at subG1 phase at 0.1 uM treated for 3 hrs measured for 15 hrs after nocodazole treatment by flow cytometry in presence of mitotic inhibitor nocodazole; type: functional
CCRF-CEM [23] = assay: Cell cycle arrest in human CCRF-CEM cells assessed as accumulation at G2/M phase at 0.1 uM treated for 3 hrs followed by drug washout and 15 hrs incubation in drug free medium by flow cytometry; type: functional
CCRF-CEM [24] = assay: Cell cycle arrest in human CCRF-CEM cells assessed as accumulation at S phase at 0.1 uM treated for 3 hrs measured for 15 hrs after nocodazole treatment by flow cytometry in presence of mitotic inhibitor nocodazole; type: functional
CCRF-CEM [25] = assay: Cell cycle arrest in human CCRF-CEM cells assessed as accumulation at G0 phase at 1 uM treated for 3 hrs followed by drug washout and 15 hrs incubation in drug free medium by flow cytometry; type: functional
CCRF-CEM [26] = assay: Cell cycle arrest in human CCRF-CEM cells assessed as accumulation at G2/M phase at 1 uM treated for 3 hrs followed by drug washout and 15 hrs incubation in drug free medium by flow cytometry; type: functional
CCRF-CEM [27] = assay: Cell cycle arrest in human CCRF-CEM cells assessed as accumulation at subG1 phase at 0.1 uM treated for 3 hrs followed by drug washout and 15 hrs incubation in drug free medium by flow cytometry; type: functional

In the case of `CO[n+]1cc2c(c3ccccc31)C(=O)c1[nH]c3ccccc3c1C2=O`, the Activity [1] is reported as 11% and the Activity [2] is reported as “Active”.

Work on `O=C1c2c[n+]([O-])c3ccccc3c2C(=O)c2[nH]c3ccccc3c21` [CALOTHRIXIN A] yielded an Activity (CCRF-CEM [3]) of 51.4%, an Activity (CCRF-CEM [4]) of 8.7% and an Activity [1] of 18%. For the same compound, the Activity (CCRF-CEM [5]) was 4.2%, the Activity (CCRF-CEM [6]) was 16% and the Activity (CCRF-CEM [7]) was 50.1%. The Activity (CCRF-CEM [8]) was 2.1%, the Activity [2] was “Active” and the Activity (CCRF-CEM [9]) was 13%. For the same compound, the Activity (CCRF-CEM [10]) was 29.5%, the Activity (CCRF-CEM [11]) was 17.3% and the Activity (CCRF-CEM [12]) was 37%. For the same compound, the Activity (CCRF-CEM [13]) was 15.3%, the Activity (CCRF-CEM [14]) was 15.3% and the Activity (CCRF-CEM [15]) was 23.6%. For the same compound, the Activity (CCRF-CEM [16]) was 8.3%, the Activity (CCRF-CEM [17]) was 13.3% and the Activity (CCRF-CEM [18]) was 16.8%. For the same compound, the Activity (CCRF-CEM [19]) was 7.5%, the IC50 (CCRF-CEM [20]) was 200 nM and the Activity (CCRF-CEM [21]) was 9.1%. It also gave an Activity (CCRF-CEM [22]) of 7.7%, an Activity (CCRF-CEM [23]) of 19.4% and an Activity (CCRF-CEM [24]) of 4%. For the same compound, the Activity (CCRF-CEM [25]) was 47.3%, the Activity (CCRF-CEM [26]) was 19% and the Activity (CCRF-CEM [27]) was 10.3%.

`O=C1c2[nH]c3ccccc3c2C(=O)c2cnc3ccccc3c21` [CALOTHRIXIN B] showed an Activity (CCRF-CEM [3]) of 55.6%, an Activity (CCRF-CEM [4]) of 4.8% and an Activity [1] of 24%. The Activity (CCRF-CEM [5]) was 4.6%, the Activity (CCRF-CEM [6]) was 7.9% and the Activity (CCRF-CEM [7]) was 51.4%. For the same compound, the Activity (CCRF-CEM [8]) was 6.4%, the Activity [2] was “Active” and the Activity (CCRF-CEM [9]) was 7.7%. It also gave an Activity (CCRF-CEM [10]) of 18.8%, an Activity (CCRF-CEM [11]) of 17.6% and an Activity (CCRF-CEM [12]) of 18.2%. It also gave an Activity (CCRF-CEM [13]) of 17%, an Activity (CCRF-CEM [14]) of 18.2% and an Activity (CCRF-CEM [15]) of 18.6%. The Activity (CCRF-CEM [16]) was 25.3%, the Activity (CCRF-CEM [17]) was 7.4% and the Activity (CCRF-CEM [18]) was 61.5%. For the same compound, the Activity (CCRF-CEM [19]) was 4.6%, the IC50 (CCRF-CEM [20]) was 1050 nM and the Activity (CCRF-CEM [21]) was 11.2%. The Activity (CCRF-CEM [22]) was 6.2%, the Activity (CCRF-CEM [23]) was 17.3% and the Activity (CCRF-CEM [24]) was 4.5%. It also gave an Activity (CCRF-CEM [25]) of 55.6%, an Activity (CCRF-CEM [26]) of 16.5% and an Activity (CCRF-CEM [27]) of 7.5%.

For `CC[C@@]1(O)C(=O)OCc2c1cc1n(c2=O)Cc2cc3ccccc3nc2-1` [CAMPTOTHECIN], the Activity (CCRF-CEM [4]) was 10.3%, the Activity (CCRF-CEM [5]) was 17.5% and the Activity (CCRF-CEM [6]) was 18%. For the same compound, the Activity (CCRF-CEM [10]) was 21.7%, the Activity (CCRF-CEM [14]) was 15.5% and the Activity (CCRF-CEM [17]) was 23.6%. For the same compound, the IC50 (CCRF-CEM [20]) was 40 nM, the Activity (CCRF-CEM [25]) was 34.6% and the Activity (CCRF-CEM [26]) was 28.4%.

`C[n+]1cc2c(c3ccccc31)C(=O)c1[nH]c3ccccc3c1C2=O.[I-]` [N-METHYLCALOTHRIXIN B] was tested, and the Activity (CCRF-CEM [3]) was 50.3%, the Activity (CCRF-CEM [4]) was 4.9% and the Activity [1] was 11%. The Activity (CCRF-CEM [5]) was 5.4%, the Activity (CCRF-CEM [6]) was 10.6% and the Activity (CCRF-CEM [7]) was 51.7%. For the same compound, the Activity (CCRF-CEM [8]) was 6.9%, the Activity [2] was “Active” and the Activity (CCRF-CEM [9]) was 11.6%. It also gave an Activity (CCRF-CEM [10]) of 20.1%, an Activity (CCRF-CEM [11]) of 17.8% and an Activity (CCRF-CEM [12]) of 21.7%. It also gave an Activity (CCRF-CEM [13]) of 15.1%, an Activity (CCRF-CEM [14]) of 17% and an Activity (CCRF-CEM [15]) of 19%. For the same compound, the Activity (CCRF-CEM [16]) was 5.1%, the Activity (CCRF-CEM [17]) was 6.9% and the Activity (CCRF-CEM [18]) was 18.8%. It also gave an Activity (CCRF-CEM [19]) of 11.3%, an IC50 (CCRF-CEM [20]) of 5130 nM and an Activity (CCRF-CEM [21]) of 11.8%. The Activity (CCRF-CEM [22]) was 3.7%, the Activity (CCRF-CEM [23]) was 20.2% and the Activity (CCRF-CEM [24]) was 3.2%. For the same compound, the Activity (CCRF-CEM [25]) was 51%, the Activity (CCRF-CEM [26]) was 19.6% and the Activity (CCRF-CEM [27]) was 9.8%.
